Results reported in PubChem BioAssay AID1918956 (Molecular Pharmacology Branch, DTP, NCI, 2023).

System: OVCAR-5 complex spheroids, viability
Test: Anticancer human tumor OVCAR-5 cell line growth inhibition;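 note: spheroids exposed to agents for seven days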;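 for viability, T/C: 100% = DMSO vehicle control wells viability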
Details: for IC50: curve of first compound; for viability, T/C: stronger effect = lower value; active = viability on the fitted dose curve at most 10% of control; inactive = the rest
Method in brief: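 Drug combinations with the LSD1 inhibitor iadademstat tested on tumor cells co-cultured as spheroids with endothelial cells and mesenchymal stem cells. Concentrations descended in half-log increments from clinical Cmax or 10 microM.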

[1] = second compound 0.1 µM, first compound 0.0316 µM
[2] = second compound 0.1 µM, first compound 0.1 µM
[3] = second compound 0.1 µM, first compound 0.316 µM
[4] = second compound 0.1 µM, first compound 1 µM
[5] = second compound 0.1 µM, first compound 3.16 µM
[6] = second compound 0.1 µM, first compound 10 µM
[7] = second compound 0.316 µM, first compound 0.0316 µM
[8] = second compound 0.316 µM, first compound 0.1 µM
[9] = second compound 0.316 µM, first compound 0.316 µM
[10] = second compound 0.316 µM, first compound 1 µM
[11] = second compound 0.316 µM, first compound 3.16 µM
[12] = second compound 0.316 µM, first compound 10 µM
[13] = second compound 1 µM, first compound 0.0316 µM
[14] = second compound 1 µM, first compound 0.1 µM
[15] = second compound 1 µM, first compound 0.316 µM
[16] = second compound 1 µM, first compound 1 µM
[17] = second compound 1 µM, first compound 3.16 µM
[18] = second compound 1 µM, first compound 10 µM
[19] = second compound 3.16 µM, first compound 0.0316 µM
[20] = second compound 3.16 µM, first compound 0.1 µM
[21] = second compound 3.16 µM, first compound 0.316 µM
[22] = second compound 3.16 µM, first compound 1 µM
[23] = second compound 3.16 µM, first compound 3.16 µM
[24] = second compound 3.16 µM, first compound 10 µM
[25] = second compound 10 µM, first compound 0.0316 µM
[26] = second compound 10 µM, first compound 0.1 µM
[27] = second compound 10 µM, first compound 0.316 µM
[28] = second compound 10 µM, first compound 1 µM
[29] = second compound 10 µM, first compound 3.16 µM
[30] = second compound 10 µM, first compound 10 µM
[31] = second compound 0.1 µM, first compound 0.000949 µM
[32] = second compound 0.1 µM, first compound 0.003 µM
[33] = second compound 0.1 µM, first compound 0.00949 µM
[34] = second compound 0.1 µM, first compound 0.03 µM
[35] = second compound 0.1 µM, first compound 0.0949 µM
[36] = second compound 0.1 µM, first compound 0.3 µM
[37] = second compound 0.316 µM, first compound 0.000949 µM
[38] = second compound 0.316 µM, first compound 0.003 µM
[39] = second compound 0.316 µM, first compound 0.00949 µM
[40] = second compound 0.316 µM, first compound 0.03 µM
[41] = second compound 0.316 µM, first compound 0.0949 µM
[42] = second compound 0.316 µM, first compound 0.3 µM
[43] = second compound 1 µM, first compound 0.000949 µM
[44] = second compound 1 µM, first compound 0.003 µM
[45] = second compound 1 µM, first compound 0.00949 µM
[46] = second compound 1 µM, first compound 0.03 µM
[47] = second compound 1 µM, first compound 0.0949 µM
[48] = second compound 1 µM, first compound 0.3 µM
[49] = second compound 3.16 µM, first compound 0.000949 µM
[50] = second compound 3.16 µM, first compound 0.003 µM
[51] = second compound 3.16 µM, first compound 0.00949 µM
[52] = second compound 3.16 µM, first compound 0.03 µM
[53] = second compound 3.16 µM, first compound 0.0949 µM
[54] = second compound 3.16 µM, first compound 0.3 µM
[55] = second compound 10 µM, first compound 0.000949 µM
[56] = second compound 10 µM, first compound 0.003 µM
[57] = second compound 10 µM, first compound 0.00949 µM
[58] = second compound 10 µM, first compound 0.03 µM
[59] = second compound 10 µM, first compound 0.0949 µM
[60] = second compound 10 µM, first compound 0.3 µM

COc1ccc([C@@H](O)c2cc(-c3ncnc4cc(N5CCOCC5)ccc34)c(F)cc2Cl)nn1 + NC1CC1c1ccc(-c2cccc(O)c2)cc1
0.3 µM: IC50 (second compound 10 µM)
inactive: viability, T/C [1] 80.8% | viability, T/C [2] 72.6% | viability, T/C [3] 55.3% | viability, T/C [4] 46.4% | viability, T/C [5] 29.5% | viability, T/C [6] 16.4% | viability, T/C [7] 92.3% | viability, T/C [8] 79.1% | viability, T/C [9] 61.4% | viability, T/C [10] 45.3% | viability, T/C [11] 31.8% | viability, T/C [12] 18.1% | viability, T/C [13] 86.3% | viability, T/C [14] 73.4% | viability, T/C [15] 57.1% | viability, T/C [16] 31.7% | viability, T/C [17] 25.8% | viability, T/C [18] 16.7% | viability, T/C [19] 84% | viability, T/C [20] 68% | viability, T/C [21] 49.9% | viability, T/C [22] 38.8% | viability, T/C [23] 31.6% | viability, T/C [24] 15.9% | viability, T/C [25] 79.1% | viability, T/C [26] 65.3% | viability, T/C [27] 46.7% | viability, T/C [28] 36.6% | viability, T/C [29] 29.6% | viability, T/C [30] 16.6%
0.396 µM: IC50 (second compound 3.16 µM)
0.419 µM: IC50 (second compound 1 µM)
0.74 µM: IC50 (second compound 0.316 µM)
0.625 µM: IC50 (second compound 0.1 µM)

Nc1ccn(C2OC(CO)C(O)C2(F)F)c(=O)n1 (stereo not given) + NC1CCC(NC2CC2c2ccccc2)CC1
inactive: viability, T/C [31] 27.8% | viability, T/C [32] 29% | viability, T/C [33] 30.3% | viability, T/C [34] 31.4% | viability, T/C [35] 30.7% | viability, T/C [36] 28.6% | viability, T/C [37] 29.5% | viability, T/C [38] 30.3% | viability, T/C [39] 31% | viability, T/C [40] 32.4% | viability, T/C [41] 30.8% | viability, T/C [42] 30.6% | viability, T/C [43] 32.8% | viability, T/C [44] 33.5% | viability, T/C [45] 34.3% | viability, T/C [46] 33.2% | viability, T/C [47] 32.7% | viability, T/C [48] 31.2% | viability, T/C [49] 32.8% | viability, T/C [50] 34.4% | viability, T/C [51] 35.5% | viability, T/C [52] 36.3% | viability, T/C [53] 33.7% | viability, T/C [54] 31.9% | viability, T/C [55] 33.3% | viability, T/C [56] 34.9% | viability, T/C [57] 36.8% | viability, T/C [58] 34.6% | viability, T/C [59] 34.9% | viability, T/C [60] 33.1%
< 0.000949 µM: IC50 (second compound 0.1 µM) | IC50 (second compound 0.316 µM) | IC50 (second compound 1 µM) | IC50 (second compound 3.16 µM) | IC50 (second compound 10 µM)

O=C(c1cc(Cc2n[nH]c(=O)c3ccccc23)ccc1F)N1CCN(C(=O)C2CC2)CC1 + NC1CCC(NC2CC2c2ccccc2)CC1
inactive: viability, T/C [1] 110% | viability, T/C [2] 116% | viability, T/C [3] 104% | viability, T/C [4] 102% | viability, T/C [5] 92.9% | viability, T/C [6] 90.5% | viability, T/C [7] 101% | viability, T/C [8] 105% | viability, T/C [9] 105% | viability, T/C [10] 101% | viability, T/C [11] 98.2% | viability, T/C [12] 89.7% | viability, T/C [13] 103% | viability, T/C [14] 103% | viability, T/C [15] 106% | viability, T/C [16] 88% | viability, T/C [17] 95.3% | viability, T/C [18] 82% | viability, T/C [19] 95.6% | viability, T/C [20] 101% | viability, T/C [21] 93% | viability, T/C [22] 100% | viability, T/C [23] 88.5% | viability, T/C [24] 74.2% | viability, T/C [25] 92.4% | viability, T/C [26] 97% | viability, T/C [27] 96.3% | viability, T/C [28] 83.2% | viability, T/C [29] 79% | viability, T/C [30] 61.1%
> 10 µM: IC50 (second compound 0.1 µM) | IC50 (second compound 0.316 µM) | IC50 (second compound 1 µM) | IC50 (second compound 3.16 µM) | IC50 (second compound 10 µM)

COc1ccc([C@@H](O)c2cc(-c3ncnc4cc(N5CCOCC5)ccc34)c(F)cc2Cl)nn1 + NC1CCC(NC2CC2c2ccccc2)CC1
1.91 µM: IC50 (second compound 0.1 µM)
0.992 µM: IC50 (second compound 10 µM)
1.92 µM: IC50 (second compound 1 µM)
inactive: viability, T/C [1] 88.3% | viability, T/C [2] 91.5% | viability, T/C [3] 79% | viability, T/C [4] 56% | viability, T/C [5] 46% | viability, T/C [6] 26.1% | viability, T/C [7] 99.3% | viability, T/C [8] 93.1% | viability, T/C [9] 69.6% | viability, T/C [10] 54.5% | viability, T/C [11] 40% | viability, T/C [12] 26% | viability, T/C [13] 88.2% | viability, T/C [14] 80.2% | viability, T/C [15] 66.4% | viability, T/C [16] 60.9% | viability, T/C [17] 44.2% | viability, T/C [18] 28% | viability, T/C [19] 93.3% | viability, T/C [20] 83.2% | viability, T/C [21] 69.3% | viability, T/C [22] 57.5% | viability, T/C [23] 40.5% | viability, T/C [24] 26.1% | viability, T/C [25] 82.5% | viability, T/C [26] 83% | viability, T/C [27] 63% | viability, T/C [28] 50.8% | viability, T/C [29] 35.8% | viability, T/C [30] 25.6%
1.61 µM: IC50 (second compound 3.16 µM)
1.36 µM: IC50 (second compound 0.316 µM)

Nc1ccccc1NC(=O)c1ccc(CNC(=O)OCc2cccnc2)cc1 + NC1CC1c1ccc(-c2cccc(O)c2)cc1
0.174 µM: IC50 (second compound 0.316 µM)
0.145 µM: IC50 (second compound 1 µM)
0.123 µM: IC50 (second compound 0.1 µM) | IC50 (second compound 10 µM)
active: viability, T/C (second compound 0.1 µM, first compound 3 µM) 8.11% | viability, T/C (second compound 0.316 µM, first compound 3 µM) 8.17% | viability, T/C (second compound 1 µM, first compound 3 µM) 8.19% | viability, T/C (second compound 3.16 µM, first compound 3 µM) 7.56%
inactive: viability, T/C [33] 83.1% | viability, T/C [34] 71.6% | viability, T/C [35] 54.5% | viability, T/C [36] 34.8% | viability, T/C (second compound 0.1 µM, first compound 0.949 µM) 19.2% | viability, T/C [39] 84.9% | viability, T/C [40] 79.7% | viability, T/C [41] 65.3% | viability, T/C [42] 35.5% | viability, T/C (second compound 0.316 µM, first compound 0.949 µM) 19.4% | viability, T/C [45] 75.6% | viability, T/C [46] 65.9% | viability, T/C [47] 62.2% | viability, T/C [48] 32.4% | viability, T/C (second compound 1 µM, first compound 0.949 µM) 19.8% | viability, T/C [51] 84% | viability, T/C [52] 68.6% | viability, T/C [53] 55.5% | viability, T/C [54] 30.6% | viability, T/C (second compound 3.16 µM, first compound 0.949 µM) 17.8% | viability, T/C [57] 79.6% | viability, T/C [58] 71.3% | viability, T/C [59] 55.5% | viability, T/C [60] 32.1% | viability, T/C (second compound 10 µM, first compound 0.949 µM) 19.5% | viability, T/C (second compound 10 µM, first compound 3 µM) 9.48%
0.111 µM: IC50 (second compound 3.16 µM)

Nc1ncn(C2CC(O)C(CO)S2)c(=O)n1 (stereo not given) + NC1CC1c1ccc(-c2cccc(O)c2)cc1
> 0.3 µM: IC50 (second compound 0.1 µM) | IC50 (second compound 0.316 µM) | IC50 (second compound 1 µM) | IC50 (second compound 3.16 µM) | IC50 (second compound 10 µM)
inactive: viability, T/C [31] 100% | viability, T/C [32] 110% | viability, T/C [33] 104% | viability, T/C [34] 95% | viability, T/C [35] 80.9% | viability, T/C [36] 71.2% | viability, T/C [37] 107% | viability, T/C [38] 112% | viability, T/C [39] 108% | viability, T/C [40] 96.2% | viability, T/C [41] 88.5% | viability, T/C [42] 69.8% | viability, T/C [43] 93.7% | viability, T/C [44] 86.6% | viability, T/C [45] 93.9% | viability, T/C [46] 92.4% | viability, T/C [47] 74.7% | viability, T/C [48] 61.7% | viability, T/C [49] 95.8% | viability, T/C [50] 97.8% | viability, T/C [51] 91.3% | viability, T/C [52] 81.6% | viability, T/C [53] 79.8% | viability, T/C [54] 64.4% | viability, T/C [55] 79% | viability, T/C [56] 93.6% | viability, T/C [57] 84.8% | viability, T/C [58] 78.1% | viability, T/C [59] 70% | viability, T/C [60] 60%
